Test results published in patent US20180290977A1, “KDM4 INHIBITORS” (Albert-Ludwigs-University Freiburg, priority 2017, published 2018).

What was measured:
Type in all cases: cell-based, human
BCSC2 cells [1] = assay: Anchorage-independent sphere formation assay (methylcellulose); conditions: erlotinib 1 μM or 10 μM (FIG. 7G)
Method: (§1) For the cancer stem-cell spheroid assay in methylcellulose, cells were detached by ACCUTASE solution and counted. 3×10^3 single BCSC1 and 1×10^3 single BCSC2 cells were seeded into individual wells of 96-well ultra-low attachment plates (CORNING, #3474) in serum-free MSC medium containing 1% methylcellulose (Sigma-Aldrich, #M0512).

BCSC2 cells [2] = assay: BCSC cell proliferation / dose-response assay; conditions: erlotinib, 10 μM (FIG. 7C)
Method: (§2) For dose-response assays, cells were detached by ACCUTASE solution dissociation and counted. […] After incubation at 37° C. for 30 min to solidify the [sequence], 1×10^3 single cells were seeded per 384-well in 40 μL medium. […] Following 96 hr of incubation under normal culture conditions, the cells were washed once with PBS and fixed with ice-cold methanol for at least 15 min at −20° C. After another washing step with PBS, cells were stained with DAPI (Sigma-Aldrich) and read-out with the ScanR microscope-based imaging platform (Olympus Deutschland GmbH, Hamburg, Del.). Total DAPI cell nuclear counts per well were determined.
(§3) For the cell proliferation assays, BCSCs tagged with a stable NLS-mCherry fluorescent signal (nuclear localization peptide) were used for this assay. Cells were detached by ACCUTASE dissociation and counted. Each well of a black 384-well plate (Greiner) was coated with 10 μL of MSC medium containing 2% [sequence]. After incubation at 37° C. for 30 min to solidify the [sequence], 1×10^3 single cells/well were seeded in 40 μL medium. […] Afterwards, the first readout with the ScanR microscope-based imaging platform (Olympus) was started, assessing mCherry-fluorescent cell nuclei in nine sectors of each well under 60% humidity and 5% CO2. This readout was repeated every 24 hr for 7 days. […]

BCSC1 cells [3] = assay: BCSC cell proliferation / dose-response assay; conditions: erlotinib, 10 μM (FIG. 7B)
Method: as §2, §3

BCSC1 cells [4] = assay: Anchorage-independent sphere formation assay (methylcellulose); conditions: erlotinib 1 μM or 10 μM (FIG. 7F)
Method: as §1

In the case of `C#Cc1cccc(Nc2ncnc3cc(OCCOC)c(OCCOC)cc23)c1` [erlotinib], the 3D-colony forming capacity (BCSC2 cells [1]) is reported as “dramatically reduced”, the “proliferation of BCSC2 cells” value (BCSC2 cells [2]) is reported as “blocked” and the “proliferation of BCSC1 cells” value (BCSC1 cells [3]) is reported as “blocked”. For the same compound, the 3D-colony forming capacity (BCSC1 cells [4]) was “dramatically reduced”.
